In the supplement of paper PMC10307832:

Experiments:
Experiment in all cases: relative viability (nuclei count vs DMSO), 5 days (fraction); higher = more cells survive
[1] = compound: C1CC1C(=O)NC2=NNC3=C2C=CC(=C3)C4=CC(=CC=C4)C(=O)NC5CC5 [XMD13-2] + COc1cc2c(Oc3ccc(NC(=O)C4(C(=O)Nc5ccc(F)cc5)CC4)cc3F)ccnc2cc1OCCCN1CCOCC1 [Foretinib] (partner 0.25 µM)
Summary of the method: (§1)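 Lung cancer cell lines were seeded in 1536-well plates and dosed by pin tool the next day, with either a single drug or a fixed anchor-drug dose combined with five library-drug doses (not always all listed) spaced in √10 steps. Five days later, one step fixed the cells and stained their nuclei (final 0.05% Triton X-100, 1% formaldehyde, 1 ug/ml Hoechst), and nuclei were counted on 4× images. Relative viability is the nuclei count in treated wells divided by the count in vehicle wells, and each value is the median of duplicate plates.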

[2] = compound: Cc1ccc(C(=O)Nc2cccc(C(F)(F)F)c2)cc1Nc1cncc(C(N)=O)c1 [ALW-II-49-7] + CS(=O)(=O)CCNCc1ccc(-c2ccc3ncnc(Nc4ccc(OCc5cccc(F)c5)c(Cl)c4)c3c2)o1 [Lapatinib] (partner 2 µM)
Summary of the method: as §1

[3] = compound: C1CC1C(=O)NC2=NNC3=C2C=CC(=C3)C4=CC(=CC=C4)C(=O)NC5CC5 [XMD13-2] + N=C(N)NC(=N)NCCc1ccccc1 [Phenformin] (partner 250 µM)
Summary of the method: as §1

[4] = compound: Cc1ccc(C(=O)Nc2cccc(C(F)(F)F)c2)cc1Nc1cncc(C(N)=O)c1 [ALW-II-49-7] + C[C@@H](Oc1cc(-c2cnn(C3CCNCC3)c2)cnc1N)c1c(Cl)ccc(F)c1Cl [Crizotinib] (partner 1 µM)
Summary of the method: as §1

| Cell Line | relative viability ([1]; first compound 0.05 µM) | relative viability ([1]; first compound 0.1581 µM) | relative viability ([1]; first compound 0.5 µM) | relative viability ([1]; first compound 1.581 µM) | relative viability ([1]; first compound 5 µM) | relative viability ([2]; first compound 0.08 µM) | relative viability ([2]; first compound 0.253 µM) | relative viability ([2]; first compound 0.8 µM) | relative viability ([2]; first compound 2.53 µM) | relative viability ([2]; first compound 8 µM) | relative viability ([3]; first compound 0.05 µM) | relative viability ([3]; first compound 0.1581 µM) | relative viability ([3]; first compound 0.5 µM) | relative viability ([3]; first compound 1.581 µM) | relative viability ([3]; first compound 5 µM) | relative viability ([4]; first compound 0.08 µM) | relative viability ([4]; first compound 0.253 µM) | relative viability ([4]; first compound 0.8 µM) | relative viability ([4]; first compound 2.53 µM) | relative viability ([4]; first compound 8 µM) |
| --- | --- | --- | --- | --- | --- | --- | --- | --- | --- | --- | --- | --- | --- | --- | --- | --- | --- | --- | --- | --- |
| EPLC-272H | 0.71 | 0.629 | 0.644 | 0.568 | 0.187 | 0.666 | 0.916 | 1.07 | 1.08 | 0.782 | 0.322 | 0.262 | 0.344 | 0.368 | 0.266 | 0.869 | 0.754 | 0.85 | 1.15 | 1 |
| LK-2 | 1.45 | 0.959 | 1.06 | 1.16 | 1.16 | 1.01 | 0.778 | 0.919 | 0.567 | 0.825 | 0.607 | 0.496 | 0.455 | 0.334 | 0.392 | 0.216 | 0.211 | 0.215 | 0.262 | 0.226 |
| HCC-827 | 1.11 | 1.04 | 0.951 | 1.05 | 0.704 | 0.17 | 0.237 | 0.189 | 0.178 | 0.175 | 0.443 | 0.366 | 0.405 | 0.478 | 0.392 | 0.898 | 0.913 | 0.886 | 0.941 | 0.906 |
| NCI-H1993 | 0.838 | 0.689 | 0.775 | 0.785 | 0.507 | 0.663 | 0.811 | 0.863 | 0.825 | 0.695 | 0.456 | 0.493 | 0.55 | 0.553 | 0.566 | 0.744 | 1.01 | 0.884 | 1.06 | 1.06 |
| NCI-H647 | 1.36 | 1.13 | 1.31 | 1.21 | 0.796 | 0.779 | 0.772 | 1.18 | 0.806 | 0.855 | 0.697 | 0.605 | 0.678 | 0.659 | 0.435 | 1.07 | 1.4 | 1.28 | 0.776 | 0.67 |
| NCI-H460 | 1.1 | 1.11 | 1.05 | 1.06 | 1.01 | 0.834 | 0.701 | 1.03 | 0.936 | 0.528 | 0.589 | 0.537 | 0.57 | 0.486 | 0.542 | 1 | 0.877 | 0.802 | 1.01 | 0.793 |
| EMC-BAC-2 | 1.11 | 1.01 | 0.791 | 0.957 | 0.61 | 0.829 | 0.812 | 0.888 | 0.937 | 0.814 | 0.534 | 0.52 | 0.586 | 0.511 | 0.561 | 0.677 | 0.728 | 0.737 | 0.588 | 0.509 |
| NCI-H23 | 1.21 | 0.83 | 1.02 | 1.06 | 1.01 | 0.88 | 1.1 | 1.35 | 1.02 | 1.01 | 1 | 0.796 | 0.802 | 0.725 | 0.916 | 0.419 | 0.475 | 0.493 | 0.598 | 0.509 |
